In patent US20200347033A1, “MODULATORS OF THE INTEGRATED STRESS PATHWAY” (Calico Life Sciences LLC, priority 2017, published 2020):
pEC50: −log10 of the molar value.

Test system: HEK293T cells carrying the ATF4 luciferase reporter
Experiment: ATF4-Luc assay (in vitro model of vanishing white matter disease)
Type: cell-based, human
Details: Homo sapiens, HEK-293T; HEK293T cells with ATF4 5'-UTR firefly luciferase reporter; 1 μg/mL tunicamycin; 7 hours; One Glo luminescence
Protocol: In order to test exemplary compounds of the invention in a cellular context, a stable VWMD cell line was first constructed. The ATF4 reporter was prepared by fusing the human full-length ATF4 5′-UTR (NCBI Accession No. BC022088.2) in front of the firefly luciferase (FLuc) coding sequence lacking the initiator methionine as described in Sidrauski et al (eLife 2013). The construct was used to produce recombinant retroviruses using standard methods and the resulting viral supernatant was used to transduce HEK293T cells, which were then subsequently selected with puromycin to generate a stable cell line.
HEK293T cells carrying the ATF4 luciferase reporter were plated on polylysine coated 384-well plates (Greiner Bio-one) at 30,000 cells per well. Cells were treated the next day with 1 μg/mL tunicamycin and 200 nM of a compound of Formula (I) for 7 hours. Luminescence was measured using One Glo (Promega) as specified by the manufacturer. Cells were maintained in DMEM with L-glutamine supplemented with 10% heat-inactivated FBS (Gibco) and Antibiotic-Antimycotic solution (Gibco).
Table 2 below summarizes the EC50 data obtained using the ATF4-Luc assay for exemplary compounds of the invention.

O=C(COc1ccc(OC(F)(F)F)cc1)N[C@H]1CC[C@H](N2CCN(c3ccc(C(F)F)cn3)C2=O)CC1 [Compound 127, N-[(1r,4r)-4-{3-[5-(difluoromethyl)pyridin-2-yl]-2-oxoimidazolidin-1-yl}cyclohexyl]-2-[4-(trifluoromethoxy)phenoxy]acetamide]
pEC50: 6.00 to 6.60

O=C(CCOc1ccc(Cl)c(F)c1)N[C@H]1CC[C@H](N2CCN(c3cnc(C(F)F)cn3)C2=O)CC1 [Compound 119, 3-(4-chloro-3-fluorophenoxy)-N-[(1r,4r)-4-{3-[5-(difluoromethyl)pyrazin-2-yl]-2-oxoimidazolidin-1-yl}cyclohexyl]propanamide]
pEC50: 6.00 to 6.60

O=C(COc1ccc(Cl)c(F)c1)N[C@H]1CC[C@H](N2CCN(c3ccc(C(F)(F)F)nc3)C2=O)CC1 [Compound 143, 2-(4-chloro-3-fluorophenoxy)-N-[(1r,4r)-4-{2-oxo-3-[6-(trifluoromethyl)pyridin-3-yl]imidazolidin-1-yl}cyclohexyl]acetamide]
pEC50: > 7.30

O=C(COc1ccc(Cl)c(F)c1)NC12CCC(N3CC(c4ccc(Cl)c(F)c4)=CC3=O)(CC1)C[C@@H]2O [Compound 109, 2-(4-chloro-3-fluorophenoxy)-N-{(2S)-4-[4-(4-chloro-3-fluorophenyl)-2-oxo-2,5-dihydro-1H-pyrrol-1-yl]-2-hydroxybicyclo[2.2.2]octan-1-yl}acetamide]
pEC50: > 7.30

O=C(COc1ccc(Cl)c(F)c1)NC12CC(N3CCC(Oc4ccc(Cl)c(F)c4)C3=O)(C1)C2 (centres unmarked) [Compound 100, 2-(4-chloro-3-fluorophenoxy)-N-{3-[3-(4-chloro-3-fluorophenoxy)-2-oxopyrrolidin-1-yl]bicyclo[1.1.1]pentan-1-yl}acetamide]
pEC50: 6.60 to 7.30

O=C(COc1ccc(Cl)c(F)c1)NC12CC(N3CC(c4ccc(Cl)c(F)c4)=CC3=O)(C1)C2 [Compound 165, 2-(4-chloro-3-fluorophenoxy)-N-{3-[4-(4-chloro-3-fluorophenyl)-2-oxo-2,5-dihydro-1H-pyrrol-1-yl]bicyclo[1.1.1]pentan-1-yl}acetamide]
pEC50: > 7.30

Cn1nc(C(F)(F)F)cc1OC1CCN(C23CC(NC(=O)COc4ccc(Cl)c(F)c4)(C2)C3)C1=O (centres unmarked) [Compound 107, 2-(4-chloro-3-fluorophenoxy)-N-[3-(3-{[1-methyl-3-(trifluoromethyl)-1H-pyrazol-5-yl]oxy}-2-oxopyrrolidin-1-yl)bicyclo[1.1.1]pentan-1-yl]acetamide]
pEC50: < 5.70

O=C(COc1ccc(Cl)c(F)c1)NC12CC(N3CCN(c4ccc(Cl)c(F)c4)C3=O)(C1)C2 [Compound 108, 2-(4-chloro-3-fluorophenoxy)-N-{3-[3-(4-chloro-3-fluorophenyl)-2-oxoimidazolidin-1-yl]bicyclo[1.1.1]pentan-1-yl}acetamide]
pEC50: > 7.30

O=C(COc1ccc(Cl)c(F)c1)NC12CC(N3Cc4cc5ccccc5cc4C3=O)(C1)C2 [Compound 168, 2-(4-chloro-3-fluorophenoxy)-N-[3-(1-oxo-1,3-dihydro-2H-benzo[f]isoindol-2-yl)bicyclo[1.1.1]pentan-1-yl]acetamide]
pEC50: 6.00 to 6.60

O=C(COc1ccc(Cl)c(F)c1)NC12CC(N3CCN(c4ccc(Cl)cc4)C3=O)(C1)C2 [Compound 114, 2-(4-chloro-3-fluorophenoxy)-N-{3-[3-(4-chlorophenyl)-2-oxoimidazolidin-1-yl]bicyclo[1.1.1]pentan-1-yl}acetamide]
pEC50: > 7.30

O=C(COc1ccc(Cl)c(F)c1)N[C@H]1CC[C@H](N2CCN(c3ccc(Cl)cc3)C2=O)CC1 [Compound 144, 2-(4-chloro-3-fluorophenoxy)-N-{(1r,4r)-4-[3-(4-chlorophenyl)-2-oxoimidazolidin-1-yl]cyclohexyl}acetamide]
pEC50: > 7.30

O=C(COc1ccc(Cl)c(Cl)c1)N[C@H]1CC[C@H](N2CCN(c3cnc(C(F)F)cn3)C2=O)CC1 [Compound 120, 2-(3,4-dichlorophenoxy)-N-[(1r,4r)-4-{3-[5-(difluoromethyl)pyrazin-2-yl]-2-oxoimidazolidin-1-yl}cyclohexyl]acetamide]
pEC50: > 7.30

Cc1csc(N2CCN([C@H]3CC[C@H](NC(=O)COc4ccc(Cl)c(F)c4)CC3)C2=O)n1 [Compound 131, 2-(4-chloro-3-fluorophenoxy)-N-{(1r,4r)-4-[3-(4-methyl-1,3-thiazol-2-yl)-2-oxoimidazolidin-1-yl]cyclohexyl}acetamide]
pEC50: 6.00 to 6.60

CC1(c2ccc(Cl)cc2)CN=C(C23CC(NC(=O)COc4ccc(Cl)c(F)c4)(C2)C3)O1 (centres unmarked) [Compound 164, 2-(4-chloro-3-fluorophenoxy)-N-{3-[5-(4-chlorophenyl)-5-methyl-4,5-dihydro-1,3-oxazol-2-yl]bicyclo[1.1.1]pentan-1-yl}acetamide]
pEC50: 6.00 to 6.60

Cn1cc(OC2CCN(C34CC(NC(=O)COc5ccc(Cl)c(F)c5)(C3)C4)C2=O)cn1 (centres unmarked) [Compound 106, 2-(4-chloro-3-fluorophenoxy)-N-(3-{3-[(1-methyl-H-pyrazol-4-yl)oxy]-2-oxopyrrolidin-1-yl}bicyclo[1.1.1]pentan-1-yl)acetamide]
pEC50: < 5.70

O=C(COc1ccc(Cl)c(F)c1)NC12CC(N3CC[C@@H](Oc4ccc(Cl)cc4)C3=O)(C1)C2 (single isomer, unassigned) [Compound 102]
pEC50: 6.00 to 6.60

O=C(COc1ccc(Cl)c(F)c1)N[C@H]1CC[C@H](N2CCN(c3ccc4c(c3)OC(F)(F)O4)C2=O)CC1 [Compound 134, 2-(4-chloro-3-fluorophenoxy)-N-{(1r,4r)-4-[3-(2,2-difluoro-2H-1,3-benzodioxol-5-yl)-2-oxoimidazolidin-1-yl]cyclohexyl}acetamide]
pEC50: > 7.30

O=C(COc1ccc(Cl)c(F)c1)NC12CC(N3C(=O)c4cc(Cl)ccc4[C@H]3O)(C1)C2 (single isomer, unassigned) [Compound 151]
pEC50: < 5.70

O=C(COc1ccc(Cl)c(F)c1)NC12CC(N3CCN(c4ccc(Cl)cn4)C3=O)(C1)C2 [Compound 145, 2-(4-chloro-3-fluorophenoxy)-N-{3-[3-(5-chloropyridin-2-yl)-2-oxoimidazolidin-1-yl]bicyclo[1.1.1]pentan-1-yl}acetamide]
pEC50: > 7.30

Cc1cc(OC2CCN(C34CC(NC(=O)COc5ccc(Cl)c(F)c5)(C3)C4)C2=O)no1 (centres unmarked) [Compound 105, 2-(4-chloro-3-fluorophenoxy)-N-(3-{3-[(5-methyl-1,2-oxazol-3-yl)oxy]-2-oxopyrrolidin-1-yl}bicyclo[1.1.1]pentan-1-yl)acetamide]
pEC50: < 5.70

O=C(COc1ccc(F)c(Cl)c1)NC12CC(N3Cc4ccccc4C3=O)(C1)C2 [Compound 117, 2-(3-chloro-4-fluorophenoxy)-N-[3-(1-oxo-1,3-dihydro-2H-isoindol-2-yl)bicyclo[1.1.1]pentan-1-yl]acetamide]
pEC50: 6.60 to 7.30

O=C(COc1ccc(Cl)c(F)c1)NC12CC(N3C(=O)OC[C@@H]3c3ccc(Cl)c(Cl)c3)(C1)C2 [Compound 110, 2-(4-chloro-3-fluorophenoxy)-N-{3-[(4S)-4-(3,4-dichlorophenyl)-2-oxo-1,3-oxazolidin-3-yl]bicyclo[1.1.1]pentan-1-yl}acetamide]
pEC50: < 5.70

O=C(NC12CC(N3CC(c4ccc(Cl)c(F)c4)OC3=O)(C1)C2)c1cnc(C(F)F)cn1 (centres unmarked) [Compound 166, N-{3-[5-(4-chloro-3-fluorophenyl)-2-oxo-1,3-oxazolidin-3-yl]bicyclo[1.1.1]pentan-1-yl}-5-(difluoromethyl)pyrazine-2-carboxamide]
pEC50: < 5.70
